Measurements: patent US7666897B2, “Analogs of indole-3-carbinol metabolites as chemotherapeutic and chemopreventive agents” (SRI International, priority 2002, dated 2010)
pIC50: −log10 of the molar value. Read-outs that look alike come from different tables or passages of the source.

Legend:
MDA-MB-231 (ER−) = experiment: Growth inhibition assay (tetrazolium blue), MDA-MB-231 (ER−) breast cancer cells; format: cell-based, human; conditions: for pIC50: no estrogen added
Procedure: (§1) Growth inhibition assays were conducted using DIM, LT, and some of the novel compounds of the invention on several breast cancer cell lines. The cell lines studied were MCF-7 (ER^+), MDA-MB-231 (ER^−), and a tamoxifen-resistant strain of MCF-7 (ER^+). The growth assays were conducted according to the method of Tiwari et al. (Tiwari, R. K., J Natl Cancer Inst 86:126-131, 1994). For growth Inhibition Assay, cells were grown in multi-well culture plates. Experiments were performed in quadruplicate. MCF-7 (ER^+) cells were grown in special medium containing 5% animal serum that had been treated to remove endogenous estrogens. After the plates were incubated at 37° C. for 24 hours, to each well was added test compound at various concentrations, with or without the estrogen 17β-estradiol (E2). The cells were then incubated for 7 days, with medium and test solutions replaced every other day. On Day 8, after the medium was removed and replaced with fresh medium without test solutions, the tetrazolium blue test was performed to determine the percentage of viable cells (viable cells convert the colorless tetrazolium to formazan, which is blue). At 4 hours after tetrazolium blue was added, the reaction was stopped and the formazan concentration was measured by detection of light absorbance at 575 nm in an enzyme linked immunosorbent assay (ELISA) plate reader. The percent growth inhibition was determined by dividing the ELISA results for samples containing test compounds by the results for control samples. […] (ER^−) cells were maintained and tested under the same conditions as described above, except that no estrogen was added.

[1] = test system: Ishikawa cells (endometrial carcinoma cells); experiment: Ishikawa assay (alkaline phosphatase induction), estrogenic and antiestrogenic activity; format: cell-based, human; conditions: AlkP induction, 72 hours; for Ishikawa Assay Anti-Estrogenic Activity at 10 μM: unit assumed
Procedure: Estrogenic and antiestrogenic activities were determined using the Ishikawa assay (Littlefield, B. A., Endocrinology 127: 2757-2762, 1990). The activities were measured at 10 μM concentrations of the test compounds. Human Ishikawa cells (endometrial carcinoma cells) are very sensitive to estrogens, and compounds with estrogenic activity induce alkaline phosphatase (AlkP) enzyme activity in these cells when administered at levels as low as 10^−12 M. Ishikawa cells were grown in growth medium supplemented with glutamine, sodium pyruvate, and 10% animal serum. At 24 hours before the experiment, the medium was replaced with medium free of phenol red and containing 5% animal serum that had been treated to remove endogenous estrogens. On Day 1, the cells were harvested and plated in fresh phenol red-free medium, and test solutions were added with or without the estrogen 17β-estradiol. After the treated cells were incubated for 72 hours, the AlkP assay was used to determine the estrogenic and antiestrogenic activity of the test compounds. Like the tetrazolium blue assay described above, this assay involves calorimetric detection using an ELISA plate reader, but here the indicator dye is yellow.

LNCaP = experiment: Growth inhibition assay (MTT), LNCaP prostate cancer cells; format: cell-based; conditions: Day 7, MTT
Procedure: (§2) Assays were conducted on compound 46 (SR13654) to determine its growth inhibitory effect on three prostate cancer cell lines, LNCaP, DU-145 and PC-3. The methods were described briefly herein. LNCaP and PC-3 cells will be maintained in […] medium, and DU-145 cells in Eaglets minimal essential medium (MEM) medium supplemented with nonessential amino acids, 2 mM glutamine and 1 mM pyruvate. All media will contain 10% fetal bovine serum (FCS). To screen compounds for their effect on cell proliferation, cells are seeded in 96-well plates at 2000 cells/well in 200 μL of medium. After cells are allowed to attach for 24 h, test compound is added to each well in 10 μL aliquots and control wells receive vehicle only. Medium and test solutions are replaced every other day. On Day 7, viable cells are measured with the MTT assay, using the protocol provided by the manufacturer (Promega, Madison, Wis.).

PC-3 = experiment: Growth inhibition assay (MTT), PC-3 prostate cancer cells; format: cell-based; conditions: Day 7, MTT
Procedure: as §2

DU-145 = experiment: Growth inhibition assay (MTT), DU-145 prostate cancer cells; format: cell-based; conditions: Day 7, MTT
Procedure: as §2

MCF-7 (ER+) = experiment: Growth inhibition assay (tetrazolium blue), MCF-7 (ER+) breast cancer cells; format: cell-based; conditions: for pIC50: 7 days incubation, tetrazolium blue; for inhibition at 1 µM: MCF7
Procedure: as §1

[2] = test system: Tamoxifen-resistant MCF-7; experiment: Growth inhibition assay (tetrazolium blue), tamoxifen-resistant MCF-7 cells; format: cell-based
Procedure: as §1

[3] = test system: MDA-MB-231 human breast cancer xenografts; experiment: (ER−) MDA-MB-231 breast cancer xenografts in nude mice; format: in vivo, female Balb/c nude mice; conditions: 10, 30, and 100 mg/kg daily oral gavage, MDA-MB-231 xenograft
Procedure: As a further test of in vivo efficacy against estrogen-independent breast cancer, the novel compound 74 was administered to nude mice that had been implanted with (ER^−) MDA-MB-231 human breast cancer xenografts. To start, female Balb/c nude mice were implanted subcutaneously (s.c.) with MDA-MB-231 cells, using an inoculum of 5×10^6 cells in a medium-Matrigel mixture (1:1, v/v). When the mean tumor volume reached approximately 70 mm^3, compound was administered daily at three dose levels (10, 30, and 100 mg/kg) via oral gavage. The methods used in the study were essentially the similar to those described in Example 29 herein.

[4] = test system: MDA-MB-231 human carcinoma cells; experiment: Boyden Chamber Invasion Assay; format: cell-based; conditions: 5 μM, 16 h end-point
Procedure: MDA-MB-231 human carcinoma cells was used for this Boyden Chamber Invasion Assay (Meng et al. (2000) J. Mol. Med. 78, 155-165; Meng et al. (2000) Breast Cancer Res. Treat. 63, 147-152). Briefly, to each well of a 24-well Biocoat invasion chamber plate, 0.6 mL of appropriate medium containing 10% FCSH 6 μg/ml Fibronectin is added, followed by gentle placement of a CCI in each well. To each CCI is added freshly harvested cells suspended in 200 μL of medium containing either the test compound or vehicle alone. The preparations are incubated at 37° C. for 16 h, and then the CCI is removed from each well, fixed for 10 min with 1 ml of 3.7% paraformaldehyde in PBS, and stained for 10 min in 1 mL of Wright-Giemsa stain solution. The stained CCI is placed on a glass microscope slide and the upper surface cells are carefully removed by scraping with a cotton swab. The cells on the lower surface are counted in a bright field microscope. The inhibitory effect of a test compound is calculated by dividing the number of cells in a treated preparation by that of the vehicle control and expressed as a percentage.

[5] = test system: SKOV-3 human ovarian cancer xenografts; experiment: SKOV-3 human ovarian cancer xenografts in nude mice; format: in vivo, female Balb/c nude mice; conditions: 30 mg/kg orally daily from Day 0, SKOV-3 xenograft
Procedure: To start, female Balb/c nude mice were implanted subcutaneously (s.c.) with SKOV-3 cells in the flanks, using an inoculum of 5×10^6 cells in a medium-Matrigel mixture (1:1, v/v), and compound 74 (30 mg/kg) was orally administered daily via gavage from Day 0. Tumor volume and body weight were measured twice weekly.

[6] = test system: MDA-MB-231 human carcinoma cells; experiment: Parallel cell growth inhibition assay to the invasion study; format: cell-based; conditions: 16 h end-point
[7] = test system: MCF-7 breast cancer xenografts; experiment: ER+ MCF-7 breast cancer xenografts in nude mice; format: in vivo, female Balb/c nude mice; conditions: oral gavage daily, MCF-7 xenograft
Procedure: To study the in vivo activity of novel compound 74 against estrogen-dependent breast cancer, the compound was administered to nude mice that had been implanted with […] MCF-7 breast cancer cells. To start the experiment, female Balb/c nude mice were implanted subcutaneously (s.c.) with estrogen pellets two days prior to inoculation of cancer cells, for stimulation of cell growth. MCF-7 cells were then implanted s.c. in the flanks, using an inoculum of 5×10^6 cells in a medium-Matrigel mixture (1:1, v/v). When the mean tumor volume reached approximately 100 mm^3, the test compound in 0.5% hydroxypropylcellulose in sterile saline solution (or vehicle alone for controls) was administered orally by gavage daily. There were 7 mice in the experimental and control groups. Mice were examined daily for tumor growth, and tumors and body weight were measured twice weekly. The tumor volume is 4/3πr1^2r2, where r1 and r2 are the short radius and long radius, respectively. On Day 27, all the mice were sacrificed, and the major organs examined by a pathologist.

NIH-OVCAR-3 = experiment: Growth inhibition assay (MTT), NIH-OVCAR-3 ovarian cancer cells; format: cell-based; conditions: Homo sapiens, OVCAR-3, 168 h; Day 7, MTT
Procedure: (§3) Assays were conducted on compound 74 (SR13668) to determine its growth inhibitory effect on two ovarian cancer cell lines, NIH-OVCAR-3 and SKOV-3. OVCAR-3 cells are routinely maintained in RPMI-1640 medium supplemented with 2 mM glutamine (GLN) and 10% fetal calf serum (FCS), and SKOV-3 cells in McCoy's 5A medium supplemented with 2 mM GLN and 10% FCS. Both cell lines are fed with fresh medium every other day and passaged every 6-7 days. To conduct the growth inhibition assay, cells from either cell line are seeded in 96-well plates at 2000 cells/well in 200 μL of medium. After cells are allowed to attach for 24 h, test compounds dissolved in dimethyl sulfoxide (DMSO) and further diluted with medium are added to each well in 10-μL aliquots. The final DMSO concentration is kept at 0.05%. Control wells receive vehicle only. Media and test solutions are replaced every other day. On Day 7, viable cells are measured with the MTT (tetrazolium blue) assay, using an MTT kit.

SKOV-3 = experiment: Growth inhibition assay (MTT), SKOV-3 ovarian cancer cells; format: cell-based; conditions: Homo sapiens, SK-OV-3, 168 h; Day 7, MTT
Procedure: as §3

pIC50 (MDA-MB-231 (ER−)) | pIC50 (MCF-7 (ER+)) | pIC50 [2] | pIC50 (MDA-MB-231 (ER−); Homo sapiens, MDA-MB-231) | pIC50 (MCF-7 (ER+); Homo sapiens, MCF7, 168 h) | pIC50 ([2]; Tamoxifen-resistant MCF7) | Structure (SMILES) | MDA-MB-231 (ER−) % Growth Inhibition at 10 μM (MDA-MB-231 (ER−)) [%] | Ishikawa Assay Estrogenic Activity at 10 μM [1] | Ishikawa Assay Anti-Estrogenic Activity at 10 μM [1] [%] | MCF-7 (ER+) % Growth Inhibition at 1 μM (MCF-7 (ER+)) [%] | inhibition at 10 µM (MDA-MB-231 (ER−); Homo sapiens, MDA-MB-231) [%] | inhibition at 1 µM (MCF-7 (ER+); Homo sapiens) [%] | also measured
5.16 | 7.51 | 6.34 | – | – | – | CCOC(=O)c1ccc2[nH]c(Cc3[nH]c4ccc(C(=O)OCC)cc4c3C)c(C)c2c1 [Compound 46, 5,5′-Dicarbethoxy-3,3′-dimethyl-2,2′-diindolylmethane] | 81 | 0 | 94 | 100 | – | – | pIC50 (LNCaP): 5.33; pIC50 (PC-3): 6.70; pIC50 (DU-145): 6.32
– | – | – | 5.68 | 7.74 | 7.25 | CCOC(=O)Oc1c2[nH]c3ccccc3c2cc2c1[nH]c1ccccc12 [Compound 58, 6-Ethoxycarbonyloxy-5,7-dihydro-indolo[2,3-b]carbazole] | – | 0 | 100 | – | 97 | 100 | –
– | – | – | 5.70 | 5.85 | 5.52 | CCOC(=O)Oc1c2[nH]c3ccc(C(=O)OCC)cc3c2cc2c1[nH]c1ccc(C(=O)OCC)cc12 [Compound 63, 2,10-Dicarbethoxy-6-ethoxycarbonyloxy-5,7-dihydro-indolo[2,3-b]carbazole] | – | 0 | 100 | – | 94 | 66 | –
– | – | – | 5.11 | 6.70 | 6.03 | CCOC(=O)c1ccc2[nH]c3c(OC)c4[nH]c5ccc(C(=O)OCC)cc5c4cc3c2c1 [Compound 74, 2,10-Dicarbethoxy-6-methoxy-5,7-dihydro-indolo[2,3-b]carbazole] | – | 0 | 80 | – | 69 | 100 | body weights of the treated mice [3]: unaffected; tumor volume versus control mice ([3]; FIG. 2): less than half of those in the control mice; reduction in the invasive capacity of MDA-MB-231 cells [4]: 90%; body weights of the treated mice [5]: unaffected; tumor volume versus control mice ([5]; FIG. 3): significantly less than those in the control mice; inhibition at 5 µM [6]: 22%; body weights of the treated mice [7]: unaffected; tumor volume versus control mice ([7]; FIG. 1): less than half of those in the control mice; pIC50 (NIH-OVCAR-3): 5.29; pIC50 (SKOV-3): 5.40
4.51 | 5.26 | < 5.00 | – | – | – | c1ccc2c(Cc3c[nH]c4ccccc34)c[nH]c2c1 [DIM, 3,3′-diindolylmethane, reference compound] | 20 | – | – | 3 | – | – | –
4.89 | 5.74 | 6.22 | – | – | – | c1ccc2c(Cc3[nH]c4ccccc4c3Cc3c[nH]c4ccccc34)c[nH]c2c1 [LT, 2-(indol-3-ylmethyl) 3,3′-diindolyl-methane, reference compound] | 34 | 0 | 100 | 19 | – | – | –
